A short description of data set [1]: Saliva test after ingestion of labelled substance (isotope content by mass spectrometry, δ-values). In kind it is in vivo, human. As for the experimental part: (§1) As a first step to test the feasibility of this approach, a self-experiment was conducted by the inventors. The aim was to obtain first data on the effect size, the pharmacokinetic data in various body fluids, and the variability between subjects. Single, large doses of the following substances were ingested by the subjects: ^13C6-glucose (1 g, two subjects) ^15N-L-leucine (1 g, two subjects) ^15N3-L-arginine (250 mg, one subject) ^15N4-L-histidine (250 mg, one subject) Baseline and follow-up samples were taken from the following body fluids: blood, saliva, and urine. These samples were dried, milled, burned, and analysed by mass spectrometry. […] Samples of exhaled breath were taken until 3 days after ingestion and analysed by IR-spectroscopy for ^13C/^12C-ratios.
(§2) Blood: Appr. 4 ml of venous blood were drawn and given into a thoroughly cleaned glass vial. The sample was frozen immediately at -18°C and stored at this temperature. Saliva: Saliva samples were obtained by letting the volunteers chew on "salivettes", i. e., cotton swabs, which were then centrifuged to extract saliva. The saliva samples were frozen at -18°C and stored at this temperature. […]
(§3) The isotopic composition was measured and compared to a standard. […] Samples of exhaled breath were taken until 3 days after ingestion and analysed by IR-spectroscopy for ^13C/^12C-ratios.

Details of data set [2]: species or system human. As to conditions: in vivo. As for the experimental part:
As a first step to test the feasibility of this approach, a self-experiment was conducted by the inventors. The aim was to obtain first data on the effect size, the pharmacokinetic data in various body fluids, and the variability between subjects. Single, large doses of the following substances were ingested by the subjects: ^13C6-glucose (1 g, two subjects) ^15N-L-leucine (1 g, two subjects) ^15N3-L-arginine (250 mg, one subject) ^15N4-L-histidine (250 mg, one subject) Baseline and follow-up samples were taken from the following body fluids: blood, saliva, and urine. These samples were dried, milled, burned, and analysed by mass spectrometry. The results are given as δ-values, which are defined as follows: [formula] where rsample is the ratio of ^15N [^13C] over ^14N [[…]] in the sample, and rstandard is the ratio of ^15N [^13C] over ^14N [[…]] in a standard. Samples of exhaled breath were taken until 3 days after ingestion and analysed by IR-spectroscopy for ^13C/^12C-ratios. Glucose and leucine were ingested on day zero, while arginine and histidine were ingested on day 116.
Gas of the sample tubes was separated by freezing at -196°C (N2) and - 78°C(CO2), and let into a mass spectrometer (Finnigan Delta +XL) according to manufacturer's specifications. The isotopic composition was measured and compared to a standard. Results are given as δ-values, which are defined as follows: [formula] where rsample is the ratio of ^15N [^13C] over ^14N [[…]] in the sample, and rstandard is the ratio of ^15N [^13C] over ^14N [^13C] in a standard. Samples of exhaled breath were taken until 3 days after ingestion and analysed by IR-spectroscopy for ^13C/^12C-ratios. Glucose and leucine were ingested on day zero, while arginine and histidine were ingested on day 116.

Details of data set [3]: species or system human. The note with it: in vivo. As for the experimental part:
as §1, §2, §3
This is another data set of the same source.

The nature of data set [4]: Blood test after ingestion of labelled substance (isotope content by mass spectrometry, δ-values). In kind it is in vivo, human. As for the experimental part: as §1
Blood: Appr. 4 ml of venous blood were drawn and given into a thoroughly cleaned glass vial. The sample was frozen immediately at -18°C and stored at this temperature. Saliva: Saliva samples were obtained by letting the volunteers chew on "salivettes", i. e., cotton swabs, which were then centrifuged to extract saliva. The saliva samples were frozen at -18°C and stored at this temperature. Urine: Urine was given into glass vials and frozen and stored at -18°C. All samples were freezedried in vacuo at -70°C, and an appropriate amount of the resulting powder was given into Supremax glass tubes, together with an appropriate amount of copper oxide, evacuated, and sealed.
as §3

Consider `O[13CH2][13C@H]1O[13CH](O)[13C@H](O)[13C@@H](O)[13C@@H]1O` (stereo partly shown) [^13C6-glucose], for which the “effect size in saliva samples” value in data set [1] (saliva, single 1 g dose ingested, two subjects, relatively large variation) was “no significant effect size”. For the same compound, in data set [2], the “period over which measurements of ^13CO2 in expired breath are sensitive” value was 1 to 2 days, the “period over which the relative content of ^13C (DOB = delta over baseline) rises” value is 1 to 3 h and the “relative content of ^13C returns to baseline values” is 36 to 48 h. In addition, in data set [3], the “relative amount of ^13C in urine: drop to normal levels” value is on record as at most 5 days. For the same compound, the remaining effect size result in data set [4] (blood, after about 50 hours after ingestion, disturbed by large variations) is “small”. In data set [4] (in vivo), the “marked increase in ^13C-content (time after ingestion)” value is listed as “approximately 6 hours” and the “rapid decrease of ^13C-content until (time after ingestion)” value is listed as “about 50 hours”.

For `CC(C)C[C@H]([15NH2])C(=O)O` [^15N-L-leucine], the “period after which δ-values in saliva are similar to urine-values” in data set [1] (in vivo) is “ca. 1 week”. In data set [3], the “δ-^15N-values of urine: time after which the figure slowly returns to baseline values” is “approximately 5 days”.
